We go through 28 compounds from patent publication US10947243B2, “Heteroaryl SYK inhibitors” (Boehringer Ingelheim International GmbH, priority 2014, dated 2021).

Series [1] can be described thus: Human Liver Microsomal Stability Test. In kind it is in vitro ADME. The note with it: human liver microsomes. The method, then:
The metabolic degradation for a specific SYK-inhibitor is performed at 37° C. with pooled human liver microsomes (human liver microsomes are commercially available as “BD UltraPool™” by Corning Life Sciences, Fogostraat 12, 1060 LJ Amsterdam, The Netherlands). The final incubation volume of 100 μl per time point contains TRIS buffer pH 7.6 at RT (0.1 M), magnesium chloride (5 mM), microsomal protein (1 mg/ml) and the test compound at a final concentration of 1 μM.
Following a short preincubation period at 37° C., the reaction is initiated by addition of beta-nicotinamide adenine dinucleotide phosphate in its reduced form (NADPH, 1 mM) and terminated by transfering an aliquot into solvent after different time points. Additionally, the NADPH-independent degradation is monitored in incubations without NADPH, terminated at the last time point.
The quenched (terminated) incubations are then pelleted by centrifugation (10000 g, 5 min).
An aliquot of the supernatant is assayed by LC-MS/MS for the remaining amount of parent compound. The half-life (t½ INVITRO) is determined by the slope of the semilogarithmic plot of the concentration-time profile.
The intrinsic clearance (CL_[…]) is calculated by considering the amount of protein in the incubation: CL_[…] [μl/min/mg protein]=(Ln 2/(t½INVITRO [min]*protein content [mg/ml]))*1000
The protein content [mg/ml] was determined with the “Bicinchoninic Acid Kit” of Sigma Aldrich (commercially available).
The upscaled intrinsic Clearance (CL_UP_INT) is calcuated by considering the liver weight [g liver/kg body weight] and the microsomal recovery [mg protein/g liver]: CL_UP_INT [ml/min/kg]=0.001*CL_[…]*liver weight*microsomal recovery • with microsomal recovery=45 mg protein/g liver • with liver weight=25.7 g liver/kg body weight
The percent hepatic blood flow (% Qh) is finally calculated by considering the human liver blood flow Q [ml/min/kg]: % Qh [%]=((Q*CL_UP_INT)/(Q+CL_UP_INT)/Q)*100 • with liver blood flow (Q)=20.7 ml/min/kg.

Series [2] has as its target Recombinant human Aurora B (amino acids 1-344) (Homo sapiens (Human), UniProt Q96GD4). As to the kind of experiment: Aurora B Kinase Test (ADP Glo luminescence). The format is biochemical. To be noted: read-out: AURB-inhibition IC50-value. As to the method:
The activity of the Aurora B kinase protein was determined using the ADP Glo® Luminescence Kinase test (Promega; V9103X).
Serial Dilution is done in 1:10 steps in 100% DMSO.
Then 20 μl Kinase detection mix (Detection Buffer #V913B Promega; Kinase Detection Substrate #V914B Promega) were added and incubated for 40 minutes at room temperature.
The output file of the reader is a csv file that contains the well number and measured RLU. For data evaluation and calculation, the measurement of the negative control was set as 0% ctrl and the measurement of the positive control was set as 100% ctrl. Based on this values the % value for the measurement of each substance concentration was calculated using an Assay Explorer software (Accelrys). Normally, the % ctrl values calculated are between 0% and 100% values but may also occur outside these limits in individual cases based on variability or compound characteristics. The IC50 values were calculated from the % ctrl values using Assay Explorer software. Calculation: [y=(a−d)/(1+(x/c)^b)+d], a=low value, d=high value; x=conc M; c=IC50 M; b=hill; y=% ctrl.
(In general: ADP-Glo first removes unused ATP, then detects ADP through luciferase.)

Series [3] addresses FLT3 (Homo sapiens (Human), UniProt P36888). The series is described as follows: FLT3 Kinase Test (Z'-LYTE). The format is biochemical. To be noted: read-out: FLT3-inhibition IC50-value. As to the method:
The activity of FLT3 is measured using the Z′-LYTE™ assay technology from Invitrogen (#PV3191)
The reaction is started by addition of 2.5 μl of the 4×ATP solution.
Positive controls are reaction mixtures containing no test compound; negative controls (blanks) are reaction mixtures containing no kinase. As a further control, the phosphopeptide solution is added to wells without kinase (=100% phosphorylation control).
The reaction is performed for 1 h at room temperature before 5 μl of the development solution is added. After a further incubation for 1 h at room temperature 5 μl of the stop reagent is added.
The output text file is evaluated in an “MS-Excel-VB-Makro” and “GraphPadPrism” (Version 5) (GraphPad Software Inc.) is used to calculate the results. Data for the inhibition of FLT3 are reported in M. data for the inhibition of the protease are reported in % CTL.

Where [4] appears, read: comparison compounds, Example numbers of WO 2011/092128.
The mark [5] stands for this setting: compounds of the invention (own Example numbers).
[6] abbreviates: comparison compounds, Example numbers of WO 2013/014060.

Sequence of Recombinant human Aurora B (amino acids 1-344) (Q96GD4 whole entry, the tested form may be a part): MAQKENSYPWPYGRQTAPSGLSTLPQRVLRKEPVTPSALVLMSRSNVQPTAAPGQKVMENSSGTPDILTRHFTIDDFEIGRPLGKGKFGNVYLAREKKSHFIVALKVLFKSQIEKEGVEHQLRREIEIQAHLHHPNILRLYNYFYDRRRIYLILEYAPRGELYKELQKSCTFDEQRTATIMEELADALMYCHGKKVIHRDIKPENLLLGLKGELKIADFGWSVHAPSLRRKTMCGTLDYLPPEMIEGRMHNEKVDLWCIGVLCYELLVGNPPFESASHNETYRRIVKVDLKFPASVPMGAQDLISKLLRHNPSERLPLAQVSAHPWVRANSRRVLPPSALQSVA
Sequence of FLT3 (P36888 564-958): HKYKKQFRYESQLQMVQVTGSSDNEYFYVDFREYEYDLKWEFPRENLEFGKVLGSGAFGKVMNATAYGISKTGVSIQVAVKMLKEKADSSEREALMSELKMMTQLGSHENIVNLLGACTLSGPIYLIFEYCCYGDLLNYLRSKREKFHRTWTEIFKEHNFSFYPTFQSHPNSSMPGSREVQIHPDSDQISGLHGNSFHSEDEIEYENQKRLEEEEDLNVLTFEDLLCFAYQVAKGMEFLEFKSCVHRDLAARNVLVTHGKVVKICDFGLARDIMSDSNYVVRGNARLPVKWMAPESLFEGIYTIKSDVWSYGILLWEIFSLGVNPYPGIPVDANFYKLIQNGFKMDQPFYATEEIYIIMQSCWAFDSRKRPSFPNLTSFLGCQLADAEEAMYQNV

Regarding `COc1cc(-c2cc3ncccc3c(O[C@H](C)[C@H]3CNC(=O)C3)n2)cc(OC)c1Cl` [Example 8 of WO 2011/092128, reference compound], in series [1] (setting [4]), the “microsomal stability Cl [% Qh]” value worked out at 77 % Qh.

Consider `C[C@@H](Oc1cc(-c2ccc(N3CCN(C)CC3)cc2)cc2nn(C)cc12)[C@H]1CNC(=O)C1` [Example 26, (4R)-4-[(1R)-1-[2-methyl-6-[4-(4-methylpiperazin-1-yl)phenyl]indazol-4-yl]oxyethyl]pyrrolidin-2-one], for which, in series [1] (percent hepatic blood flow), the “microsomal stability Cl [% Qh]” value is on record as under 23 % Qh.

Turning to `C[C@@H](Oc1nc(-c2ccc3cnn(C)c3c2)cc2nn(C)cc12)[C@H]1CNC(=O)C1` [Example 72, (4R)-4-[(1R)-1-[2-methyl-6-(1-methylindazol-6-yl)pyrazolo[4,3-c]pyridin-4-yl]oxyethyl]pyrrolidin-2-one], in series [1] (setting [5]), the “microsomal stability Cl [% Qh]” value was under 23 % Qh.

With `Cc1nc(C)c2cc(-c3cc(O[C@H](C)[C@H]4CNC(=O)C4)c4cccnc4c3)ccc2n1` [compound 107], in series [1] (setting [6]), the “microsomal stability Cl [% Qh]” value worked out at 38 % Qh.

For the compound `COc1ccc(-c2cc3nn(C)cc3c(O[C@H](C)[C@H]3CNC(=O)C3)n2)cn1` [Example 59, (4R)-4-[(1R)-1-[6-(6-methoxy-3-pyridyl)-2-methyl-pyrazolo-[4,3-c]pyridin-4-yl]oxyethyl]-pyrrolidin-2-one], the “microsomal stability Cl [% Qh]” value in series [1] (percent hepatic blood flow) is given as under 23 % Qh.

A word on the IC50: it is the concentration at which inhibition is half-maximal. For `C[C@@H](Oc1nc(-c2ccc3cc(C(=O)N(C)C)n(C)c3c2)cc2nn(C)cc12)[C@H]1CNC(=O)C1` [Example 56, N,N,1-trimethyl-6-[2-methyl-4-[(1R)-1-[(3R)-5-oxopyrrol-idin-3-yl]ethoxy]pyrazolo[4,3-c]pyridin-6-yl]indole-2-carboxamide], the IC50 in series [2] is over 50 µM.

With `COc1cc(-c2cc(O[C@H](C)[C@H]3CNC(=O)C3)c3cccnc3c2)ccc1C(F)(F)F` [compound 102], the “microsomal stability Cl [% Qh]” value in series [1] (setting [6]) is reported as 54 % Qh.

In the case of `CC(C)Oc1ccc(-c2cc(O[C@H](C)[C@H]3CNC(=O)C3)c3cn(C)nc3c2)cn1` [Example 27, (4R)-4-[(1R)-1-[6-(6-isopropoxy-3-pyridyl)-2-methyl-indazol-4-yl]oxyethyl]pyrrolidin-2-one], the “microsomal stability Cl [% Qh]” value in series [1] (percent hepatic blood flow) was under 23 % Qh.

As for `Cc1nc2cc(-c3cc(O[C@H](C)[C@H]4CNC(=O)C4)c4cccnc4c3)ccc2n1C` [compound 105], in series [1] (setting [6]), the “microsomal stability Cl [% Qh]” value turned out to be 64 % Qh.

Turning to `COc1cc(-c2cc3nn(C)cc3c(O[C@H](C)[C@H]3CNC(=O)C3)n2)cc(OC)c1OC` [Example 52, (4R)-4-[(1R)-1-[2-methyl-6-(3,4,5-trimethoxyphenyl)-pyrazolo[4,3-c]pyridin-4-yl]oxyethyl]pyrrolidin-2-one], in series [1] (setting [5]), the “microsomal stability Cl [% Qh]” value is recorded as under 23 % Qh.

In the case of `C[C@@H](Oc1cc(-c2ccn(C)n2)cc2nn(C)cc12)[C@H]1CNC(=O)C1` [Example 14, (4R)-4-[(1R)-1-[2-methyl-6-(1-methylpyrazol-3-yl)indazol-4-yl]oxyethyl]-pyrrolidin-2-one], the IC50 in series [2] was over 50 µM.

In the case of `C[C@@H](Oc1cc(-c2ccc3c(cnn3C)c2)cc2nn(C)cc12)[C@H]1CNC(=O)C1` [Example 28, (4R)-4-[(1R)-1-[2-methyl-6-(1-methylindazol-5-yl)indazol-4-yl]oxyethyl]pyrrolidin-2-one], the “microsomal stability Cl [% Qh]” value in series [1] (setting [5]) is under 23 % Qh.

Take `C[C@@H](Oc1cc(-c2ccc(N3CCOCC3)cc2)cc2nn(C)cc12)[C@H]1CNC(=O)C1` [Example 22, (4R)-4-[(1R)-1-[2-Methyl-6-(4-morpholinophenyl)indazol-4-yl]oxyethyl]-pyrrolidin-2-one]: the “microsomal stability Cl [% Qh]” value in series [1] (percent hepatic blood flow) amounted to 25 % Qh.

Consider `C[C@@H](Oc1nc(-c2ccc(N3CCN(C)CC3)cc2)cc2nn(C)cc12)[C@H]1CNC(=O)C1` [Example 67, (4R)-4-[(1R)-1-[2-methyl-6-[4-(4-methylpiperazin-1-yl)phenyl]pyrazolo[4,3-c]pyridin-4-yl]oxyethyl]-pyrrolidin-2-one], for which the “microsomal stability Cl [% Qh]” value in series [1] (percent hepatic blood flow) turned out to be 34 % Qh.

For the compound `C[C@@H](Oc1cc(-c2ccc(CN3CCOCC3)cc2)cc2ncccc12)[C@H]1CNC(=O)C1` [43 of WO 2013/014060], in series [1] (percent hepatic blood flow), the “microsomal stability Cl [% Qh]” value is recorded as under 23 % Qh.

On to `C[C@@H](Oc1nc(-c2ccc3c(cnn3C)c2)cc2nn(C)cc12)[C@H]1CNC(=O)C1` [Example 62, (4R)-4-[(1R)-1-[2-methyl-6-(1-methylindazol-5-yl)pyrazolo[4,3-c]pyridin-4-yl]oxyethyl]pyrrolidin-2-one], for which the “microsomal stability Cl [% Qh]” value in series [1] (setting [5]) is given as under 23 % Qh.

Take `C[C@@H](Oc1cc(-c2ccc(C(=O)N3CCN(C)CC3)cc2)cc2ncccc12)[C@H]1CNC(=O)C1` [76 of WO 2013/014060]: in series [1] (percent hepatic blood flow), the “microsomal stability Cl [% Qh]” value is listed as under 23 % Qh.

Turning to `C[C@@H](Oc1cc(-c2cnn(C(C)(C)C)c2)cc2nn(C)cc12)[C@H]1CNC(=O)C1` [Example 18, (4R)-4-[(1R)-1-[6-(1-tert-butylpyrazol-4-yl)-2-methyl-indazol-4-yl]oxyethyl]pyrrolidin-2-one], the “microsomal stability Cl [% Qh]” value in series [1] (setting [5]) is under 23 % Qh.

In the case of `C[C@@H](Oc1cc(-c2ccc3c(c2)CNCC3)cc2ncccc12)[C@H]1CNC(=O)C1` [101 of WO 2013/014060], the “microsomal stability Cl [% Qh]” value in series [1] (percent hepatic blood flow) is under 23 % Qh.

On to `C[C@@H](Oc1cc(-c2ccc3c(c2)c(N)nn3C)cc2nn(C)cc12)[C@H]1CNC(=O)C1` [Example 36, (4R)-4-[(1R)-1-[6-(3-amino-1-methyl-indazol-5-yl)-2-methyl-indazol-4-yl]oxyethyl]pyrrolidin-2-one], for which, in series [1] (setting [5]), the “microsomal stability Cl [% Qh]” value is reported as under 23 % Qh.

As to `Cc1nc2cc(-c3cc(O[C@H](C)[C@H]4CNC(=O)C4)c4cccnc4c3)ccc2[nH]1` [compound 109], the “microsomal stability Cl [% Qh]” value in series [1] (setting [6]) amounted to 41 % Qh.

As for `Cc1nc2ccc(-c3cc(O[C@H](C)[C@H]4CNC(=O)C4)c4cccnc4c3)cc2s1` [compound 85], the “microsomal stability Cl [% Qh]” value in series [1] (setting [6]) was found to be 49 % Qh.

In the case of `C[C@@H](Oc1cc(-c2ccccn2)cc2ncccc12)[C@H]1CNC(=O)C1` [6 of WO 2013/014060], in series [1] (percent hepatic blood flow), the “microsomal stability Cl [% Qh]” value came out at 24 % Qh.

For the compound “(4R)-4-[(1R)-1-[6-[1-(Difluoromethyl)imidazol-4-yl]-2-methyl-pyrazolo[4,3-c]pyridin-4-yl]oxyethyl]pyrrolidin-2-one [Example 83]”, in series [3], the IC50 turned out to be 25.6 µM.

As for `C[C@@H](Oc1nc(-c2ccc(N3CCOCC3)nc2)cc2ncccc12)[C@H]1CNC(=O)C1` [45 of WO 2011/092128], the “microsomal stability Cl [% Qh]” value in series [1] (percent hepatic blood flow) amounted to 53 % Qh.

As for `COc1cc(-c2cc3ncccc3c(O[C@H](C)[C@H]3CNC(=O)C3)n2)ccc1OC(F)(F)F` [compound 4], the “microsomal stability Cl [% Qh]” value in series [1] (setting [4]) was 33 % Qh.

As for `C[C@@H](Oc1nc(-c2ccc(C(F)F)nc2)cc2nn(C)cc12)[C@H]1CNC(=O)C1` [Example 51, (4R)-4-[(1R)-1-[6-[6-(difluoromethyl)-3-pyridyl]-2-methyl-pyrazolo[4,3-c]pyridin-4-yl]oxyethyl]pyrrolidin-2-one], the “microsomal stability Cl [% Qh]” value in series [1] (percent hepatic blood flow) is on record as under 23 % Qh.

Consider `COc1cc(-c2cc(O[C@H](C)[C@H]3CNC(=O)C3)c3cccnc3c2)cc(OC)c1OC` [Example 2 of WO 2013/014060, reference compound], for which the “microsomal stability Cl [% Qh]” value in series [1] (setting [6]) was determined as 81 % Qh.
